The values that follow come from US5994342A, “3-(substituted methyl)-4-oxa-1-azabicyclo[3.2.0]heptan-7-one derivatives useful as antitumor agents” (priority 1994, dated 1999).

SMILES strings stand for the structures. ≈ marks a conversion by molar mass, not a printed value. Counter-ions that a name gives are not always drawn.

One data set relates to KB cells. Nature of the data set: In vitro KB cell cytotoxicity assay (crystal violet). The class given is cell-based. Conditions: Homo sapiens, 72 h, 3 days culture, read-out: KB Cell Cytotoxicity TD50. Summed up:
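Cells seeded at 3×10^4 cells/ml in Eagle's MEM with 10% calf serum, cultured one day, then exposed to compound for three days at 37° C, 5% CO2. Glutaraldehyde-fixed cells stained with 0.05% crystal violet, eluted and read at OD540; TD50 from linear regression of log-logit plot of growth inhibition.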

Another data set has as its system Sarcoma 180. Description: In vivo antitumor activity against Sarcoma 180. Details: species or system male ICR mice. The following applies: i.p., days 1, 5 and 9. The method, then: In Vivo Antitumor Activity Against Sarcoma 180
The compounds of general formula (I) were tested in vivo against Sarcoma 180 xenografted tumor to mice as illustrated herein after.
Sarcoma 180, 5×10^6 cells were inoculated by S.C. to male ICR mice (6 week old) on day 0. Drugs were administered on days 1, 5 and 9. Mice were killed and tumor weight was measured on day 12 after transplantation. The percentage inhibition of tumor growth was calculated from the mean tumor weight of the treated group compared with that of the control group. Number of mice used in each group was between 6 to 7.

Where [1] appears, read: Mus musculus, Sarcoma-180, ip, 288 h, 12.5 mg/kg/day, tumor s.c., tumor weight day 12, read-out: % Inhibition of tumor growth.
[2] abbreviates: Mus musculus, Sarcoma-180, ip, 288 h, 25 mg/kg/day, tumor s.c., tumor weight day 12, read-out: % Inhibition of tumor growth.
Where [3] appears, read: Mus musculus, Sarcoma-180, ip, 288 h, 50 mg/kg/day, tumor s.c., tumor weight day 12, read-out: % Inhibition of tumor growth.
Where [4] appears, read: Mus musculus, Sarcoma-180, ip, 288 h, 100 mg/kg/day, tumor s.c., tumor weight day 12, read-out: % Inhibition of tumor growth.

Take `CC(=O)NC[C@H]1CN2C(=O)C[C@@H]2O1` [Example 2, (3S,5S)-3-(N-Acetylaminomethyl)-4-oxa-1-azabicyclo[3.2.0]heptan-7-one]: the IC50 in the data set with KB cells turned out to be 0.77 µg/mL (≈ 4.18 µM). Further, the “Mortality in 12 days” value in the data set with Sarcoma 180 (10 mg/kg/day) is 0/6; in the data set on Sarcoma 180 (20 mg/kg/day), 1/7. The inhibition in vivo at 10 mg/kg in the data set on Sarcoma 180 (Mus musculus, Sarcoma-180, ip, 288 h, 10 mg/kg/day, tumor s.c., tumor weight day 12, read-out: % Inhibition of tumor growth) was 44.7%. Also, the inhibition in vivo at 20 mg/kg with Sarcoma 180 (Mus musculus, Sarcoma-180, ip, 288 h, 20 mg/kg/day, tumor s.c., tumor weight day 12, read-out: % Inhibition of tumor growth) was 77.5%.

Turning to `N[C@@H](CC(=O)O)C(=O)NCC(=O)NCC1CN2C(=O)CC2O1` (stereo partly drawn) [Example 46B, (3RS,5RS)-3-N-[N-(L-2-Amino-3-carboxypropanoyl)aminoacetyl]aminomethyl-4-oxa-1-azabicyclo[3.2.0]heptan-7-one], the IC50 with KB cells amounted to 2.63 µg/mL (≈ 8.37 µM). Moreover, the “Mortality in 12 days” value is reported as 0/6 with Sarcoma 180 (12.5 mg/kg/day), 0/6 with Sarcoma 180 (25 mg/kg/day) and 1/6 with Sarcoma 180 (50 mg/kg/day). In the data set with Sarcoma 180 (setting [1]), the inhibition in vivo at 12.5 mg/kg worked out at 44.7%. Moreover, the inhibition in vivo at 25 mg/kg in the data set with Sarcoma 180 (setting [2]) was determined as 55.7%. In addition, in the data set with Sarcoma 180 (setting [3]), the inhibition in vivo at 50 mg/kg was 76.9%.

With `CC(C)[C@H](N)C(=O)N[C@@H](C)C(=O)OCC1CN2C(=O)CC2O1` (stereo partly drawn) [Example 49B, (3RS,5SR)-3-[L-2-N-(L-2-Amino-3-methylbutyryl)aminopropanoyl]oxymethyl-4-oxa-1-azabicyclo[3.2.0]heptan-7-one hydrochloride], in the data set on KB cells, the IC50 stood at 0.537 µg/mL. Moreover, the “Mortality in 12 days” value with Sarcoma 180 (25 mg/kg/day) and in the data set with Sarcoma 180 (50 mg/kg/day) was 0/6 in each case. Also, the inhibition in vivo at 25 mg/kg with Sarcoma 180 (setting [2]) was found to be 55.7%. Moreover, the inhibition in vivo at 50 mg/kg with Sarcoma 180 (setting [3]) was found to be 71%.

Turning to `C[C@@H](NC(=O)Cc1cccs1)C(=O)N[C@H](C)C(=O)OCC1CN2C(=O)CC2O1` (stereo partly drawn) [Example 52, (3RS,5SR)-3-{D-2-N-[D-2-N-(Thiophen-2-yl)acetylaminopropanoyl]aminopropanoyl}oxymethyl-4-oxa-1-azabicyclo[3.2.0]heptan-7-one], the IC50 in the data set on KB cells was 0.197 µg/mL (≈ 0.481 µM). In addition, the “Mortality in 12 days” value is reported as 0/6 in the data set with Sarcoma 180 (25 mg/kg/day), 0/6 with Sarcoma 180 (50 mg/kg/day) and 2/6 in the data set on Sarcoma 180 (100 mg/kg/day). Besides, the inhibition in vivo at 25 mg/kg in the data set on Sarcoma 180 (setting [2]) was found to be 45.2%. Further, the inhibition in vivo at 50 mg/kg with Sarcoma 180 (setting [3]) was determined as 63.9%. Besides, the inhibition in vivo at 100 mg/kg with Sarcoma 180 (setting [4]) came out at 70.7%.

As to `C[C@@H](N)C(=O)NCC1CN2C(=O)CC2O1` (stereo partly drawn) [Example 53B, (3RS,5RS)-3-N-(D-2-Aminopropanoyl)aminomethyl-4-oxa-1-azabicyclo[3.2.0]heptan-7-one hydrochloride], in the data set with KB cells, the IC50 was 0.316 µg/mL. Also, the “Mortality in 12 days” value in the data set with Sarcoma 180 (6.3 mg/kg/day) is recorded as 0/6; in the data set with Sarcoma 180 (12.5 mg/kg/day), 0/6; in the data set on Sarcoma 180 (25 mg/kg/day), 1/6. In addition, the inhibition in vivo at 6.3 mg/kg in the data set with Sarcoma 180 (Mus musculus, Sarcoma-180, ip, 288 h, 6.3 mg/kg/day, tumor s.c., tumor weight day 12, read-out: % Inhibition of tumor growth) came out at 47.3%. Moreover, in the data set on Sarcoma 180 (setting [1]), the inhibition in vivo at 12.5 mg/kg is 61.9%. For the same compound, the inhibition in vivo at 25 mg/kg in the data set on Sarcoma 180 (setting [2]) is 73.8%.

Turning to `CC(C)[C@H](NC(=O)CN)C(=O)OCC1CN2C(=O)CC2O1` (stereo partly drawn) [Example 55B, (3RS,5SR)-3-[L-2-(N-Aminoacetyl)amino-3-methylbutyryl]oxymethyl-4-oxa-1-azabicyclo[3.2.0]heptan-7-one hydrochloride], in the data set with KB cells, the IC50 turned out to be 0.522 µg/mL. Moreover, the “Mortality in 12 days” value in the data set on Sarcoma 180 (25 mg/kg/day) and in the data set with Sarcoma 180 (50 mg/kg/day) was 0/6 in each case. Further, the inhibition in vivo at 25 mg/kg in the data set on Sarcoma 180 (setting [2]) is 47.6%. Also, in the data set on Sarcoma 180 (setting [3]), the inhibition in vivo at 50 mg/kg is 74.4%.

For the compound `CC(C)[C@H](N)C(=O)N[C@H](C(=O)OCC1CN2C(=O)CC2O1)C(C)C` (stereo partly drawn) [Example 56B, (3RS,5SR)-3-[L-2-N-(L-2-Amino-3-methylbutyryl)amino-3-methylbutyryl]oxymethyl-4-oxa-1-azabicyclo-[3.2.0]heptan-7-one hydrochloride], in the data set with KB cells, the IC50 amounted to 0.283 µg/mL. The “Mortality in 12 days” value with Sarcoma 180 (12.5 mg/kg/day), with Sarcoma 180 (25 mg/kg/day) and in the data set with Sarcoma 180 (50 mg/kg/day) was 0/6 in each case. Besides, the inhibition in vivo at 12.5 mg/kg in the data set with Sarcoma 180 (setting [1]) was found to be 48.9%. For the same compound, the inhibition in vivo at 25 mg/kg in the data set with Sarcoma 180 (setting [2]) worked out at 69.2%. In addition, the inhibition in vivo at 50 mg/kg in the data set on Sarcoma 180 (setting [3]) amounted to 73.2%.

Regarding `CC(C)[C@H](NC(=O)[C@@H](N)CC(=O)O)C(=O)OCC1CN2C(=O)CC2O1` (stereo partly drawn) [Example 57B, (3RS,5RS)-3-N-[L-2-N-(L-2-Amino-3-carboxypropanoyl)amino-3-methylbutyryl]oxymethyl-4-oxa-1-azabicyclo[3.2.0]heptan-7-one], the IC50 with KB cells came to 1.54 µg/mL (≈ 4.31 µM). The “Mortality in 12 days” value in the data set with Sarcoma 180 (12.5 mg/kg/day) is recorded as 0/6; in the data set with Sarcoma 180 (25 mg/kg/day) it was 0/6; with Sarcoma 180 (50 mg/kg/day), 1/6. Besides, the inhibition in vivo at 12.5 mg/kg in the data set with Sarcoma 180 (setting [1]) is 40.9%. Also, in the data set with Sarcoma 180 (setting [2]), the inhibition in vivo at 25 mg/kg came to 58.1%. Moreover, the inhibition in vivo at 50 mg/kg in the data set with Sarcoma 180 (setting [3]) is 83.1%.

On to `CC(C)[C@@H](N)C(=O)N[C@@H](C(=O)OCC1CN2C(=O)CC2O1)C(C)C` (stereo partly drawn) [Example 62B, (3RS,5SR)-3-[D-2-N-(D-2-Amino-3-methylbutyryl)amino-3-methylbutyryl]oxymethyl-4-oxa-1-azabicyclo[3.2.0]heptan-7-one hydrochloride], for which, in the data set with KB cells, the IC50 was 0.381 µg/mL. Besides, the “Mortality in 12 days” value in the data set with Sarcoma 180 (100 mg/kg/day) was 0/6. Besides, in the data set on Sarcoma 180 (setting [4]), the inhibition in vivo at 100 mg/kg was 42.1%.

Turning to `N[C@@H](Cc1ccccc1)C(=O)NCC1CN2C(=O)CC2O1` (stereo partly drawn) [Example 63B, (3RS,5RS)-3-N-(L-2-Amino-3-phenylpropanoyl)aminomethyl-4-oxa-1-azabicyclo[3.2.0]heptan-7-one hydrochloride], the IC50 in the data set with KB cells came out at 0.573 µg/mL. Moreover, the “Mortality in 12 days” value with Sarcoma 180 (50 mg/kg/day) and in the data set on Sarcoma 180 (100 mg/kg/day) was 0/6 each time. In addition, in the data set on Sarcoma 180 (setting [3]), the inhibition in vivo at 50 mg/kg is 50.3%. For the same compound, the inhibition in vivo at 100 mg/kg in the data set on Sarcoma 180 (setting [4]) came to 57.6%.

As to `N[C@@H](CC(=O)O)C(=O)NCC1CN2C(=O)CC2O1` (stereo partly drawn) [Example 67B, (3RS,5RS)-3-N-(L-2-Amino-3-carboxypropanoyl)aminomethyl-4-oxa-1-azabicyclo[3.2.0]heptan-7-one], in the data set with KB cells, the IC50 is 6.04 µg/mL (≈ 23.5 µM). Further, the “Mortality in 12 days” value with Sarcoma 180 (50 mg/kg/day) and in the data set with Sarcoma 180 (100 mg/kg/day) was 0/6 each time. For the same compound, the inhibition in vivo at 50 mg/kg in the data set with Sarcoma 180 (setting [3]) amounted to 41.1%. In addition, the inhibition in vivo at 100 mg/kg with Sarcoma 180 (setting [4]) came to 65.9%.

As to `N[C@H](CCC(=O)NCC1CN2C(=O)CC2O1)C(=O)O` (stereo partly drawn) [Example 69B, (3RS,5RS)-3-N-(D-4-Amino-4-carboxybutyryl)aminomethyl-4-oxa-1-azabicyclo[3.2.0]heptan-7-one], in the data set on KB cells, the IC50 came to 2.47 µg/mL (≈ 9.11 µM). Besides, the “Mortality in 12 days” value with Sarcoma 180 (100 mg/kg/day) is 0/6. In addition, the inhibition in vivo at 100 mg/kg in the data set on Sarcoma 180 (setting [4]) turned out to be 37.8%.

With `CC(C)[C@H](N)C(=O)N[C@@H](COCc1ccccc1)C(=O)OCC1CN2C(=O)CC2O1` (stereo partly drawn) [Example 74B, (3RS,5SR)-3-[L-2-N-(L-2-N-Amino-3-methylbutyryl)amino-3-benzyloxypropanoyloxymethyl]-4-oxa-1-azabicyclo[3.2.0]heptan-7-one hydrochloride], the IC50 with KB cells amounted to 0.669 µg/mL. Further, the “Mortality in 12 days” value is listed as 0/6 with Sarcoma 180 (50 mg/kg/day) and 1/6 with Sarcoma 180 (100 mg/kg/day). The inhibition in vivo at 50 mg/kg in the data set on Sarcoma 180 (setting [3]) was 49.9%. The inhibition in vivo at 100 mg/kg in the data set with Sarcoma 180 (setting [4]) was found to be 84.1%.

For the compound `CC(=O)N[C@@H](CO)C(=O)OCC1CN2C(=O)CC2O1` (stereo partly drawn) [Example 75A, (3RS,5SR)-3-(L-2-Acetamido-3-hydroxypropanoyl)oxymethyl-4-oxa-1-azabicyclo[3.20]heptan-7-one], in the data set on KB cells, the IC50 stood at 1.98 µg/mL (≈ 7.27 µM). The “Mortality in 12 days” value in the data set on Sarcoma 180 (12.5 mg/kg/day) and in the data set with Sarcoma 180 (25 mg/kg/day) was 0/6 throughout. The inhibition in vivo at 12.5 mg/kg in the data set on Sarcoma 180 (setting [1]) came out at 42.8%. In addition, the inhibition in vivo at 25 mg/kg in the data set with Sarcoma 180 (setting [2]) was 61.9%.
